Inhibition data for eleven compounds are collected here from patent publication US8173689B2 (Novartis AG, priority 2006, dated 2012).

The target of experiment [1] is T1, cytoplasmic domain of the human CSF-1R (Homo sapiens, UniProt P07333).
T1 construct: Recombinant protein corresponding to the cytoplasmic domain of the human CSF-1R; purchased Invitrogen Corporation, Carlsbad, Calif; PV3249
T1 sequence (P07333 539-972 limits assumed): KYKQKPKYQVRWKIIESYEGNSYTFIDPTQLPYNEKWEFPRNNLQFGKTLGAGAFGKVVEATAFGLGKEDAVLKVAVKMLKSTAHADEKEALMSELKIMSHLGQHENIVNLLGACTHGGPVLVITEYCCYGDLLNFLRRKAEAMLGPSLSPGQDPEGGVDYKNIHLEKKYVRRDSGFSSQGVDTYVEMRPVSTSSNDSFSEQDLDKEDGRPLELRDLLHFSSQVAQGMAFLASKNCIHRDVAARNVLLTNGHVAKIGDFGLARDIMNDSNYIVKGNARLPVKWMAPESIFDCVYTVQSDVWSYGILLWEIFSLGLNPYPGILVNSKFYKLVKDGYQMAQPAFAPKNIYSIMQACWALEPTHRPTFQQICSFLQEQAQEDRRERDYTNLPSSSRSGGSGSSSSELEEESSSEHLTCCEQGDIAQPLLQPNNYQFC
As to the kind of experiment: In vitro kinase assay for colony stimulating factor-1 receptor (AlphaScreen). Type of experiment: biochemical. The conditions noted are these: tested at about 1 μM; read-out: CSF-1R percent inhibition. As to the method:
The kinase activity of various protein tyrosine kinases can be measured by providing ATP and a suitable peptide or protein tyrosine-containing substrate, and assaying the transfer of phosphate moiety to the tyrosine residue. Recombinant protein corresponding to the cytoplasmic domain of the human CSF-1R was purchased from Invitrogen Corporation, Carlsbad, Calif. U.S.A. (#PV3249). For each assay, test compounds were serially diluted, starting at 25 μM with 3 fold dilutions, in DMSO in 384 well plates then mixed with an appropriate kinase reaction buffer consisting of 50 mM Hepes, 5 mM MgCl2, 10 mM MnCl2, 0.1% BSA, pH 7.5, 1.0 mM dithiothreitol, 0.01% Tween 80 plus 1 μM ATP. […] Added to the stopped reaction mix was 30 μL of PT66 Alphascreen beads (Perkin Elmer, Boston, Mass., U.S.A.). The reaction was incubated overnight and read on the Envision (Perkin Elmer). Phosphorylated peptide product was measured with the AlphaScreen system (Perkin Elmer) using acceptor beads coated with anti-phosphotyrosine antibody PT66 and donor beads coated with streptavidin that emit a fluorescent signal at the 520-620 nm emission wave length if in close proximity.
CSF-1R kinase was added at final concentration of 4 nM.

In another experiment the target is T2, kinase domain of cKIT (Homo sapiens, UniProt P10721).
T2 construct: The kinase domain of cKIT was assayed in 50 mM Hepes; purchased Upstate 14-559
As to the kind of experiment: Inhibition of cKIT kinase signaling in an in vitro biochemical assay (alphascreen). To be noted: tested at about 1 μM; read-out: cKit percent inhibition. The method, then:
(§1) The IC50 values for the inhibition of RTKs were determined in the alphascreen format measuring the inhibition by compound of phosphate transfer to a substrate by the respective enzyme. Briefly, the respective RTK domain purchased as human recombinant protein (cKIT Upstate #14-559, PDGFRb Invitrogen #P3082) were incubated with serial dilutions of compound in the presence of substrate and ATP concentrations within 3 times the Km of the enzyme.
(§2) Alphascreen PY20 beads were added to the stopped cKIT reactions and PY20 Ab/Protein A Alphascreen beads were added to the PDGFRβ stopped reactions. Both reactions were incubated overnight and read on the Alphascreen reader.
A general note: Alpha assays give light when donor and acceptor beads are brought close together.

Another experiment deals with T3, kinase domain of PDGFRβ (Homo sapiens, UniProt P09619).
T3 construct: The kinase domain of PDGFRβ was assayed in 50 mM Hepes; purchased Invitrogen P3082
As to the kind of experiment: Inhibition of PDGFRb kinase signaling in an in vitro biochemical assay (alphascreen). To be noted: tested at about 1 μM; read-out: PDGFRβ percent inhibition. As to the method:
as §1, §2

T3 sequence (P09619 600-962 limits assumed): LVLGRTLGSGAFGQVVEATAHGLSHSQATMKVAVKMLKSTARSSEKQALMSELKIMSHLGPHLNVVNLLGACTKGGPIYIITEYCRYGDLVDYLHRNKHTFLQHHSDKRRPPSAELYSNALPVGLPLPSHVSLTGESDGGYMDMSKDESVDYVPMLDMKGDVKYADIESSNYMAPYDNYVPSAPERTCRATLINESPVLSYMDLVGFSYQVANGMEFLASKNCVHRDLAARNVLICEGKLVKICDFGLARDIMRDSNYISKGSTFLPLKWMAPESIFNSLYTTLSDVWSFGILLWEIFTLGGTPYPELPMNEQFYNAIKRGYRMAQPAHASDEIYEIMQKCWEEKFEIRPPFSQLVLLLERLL
T2 sequence (P10721 589-937 limits assumed): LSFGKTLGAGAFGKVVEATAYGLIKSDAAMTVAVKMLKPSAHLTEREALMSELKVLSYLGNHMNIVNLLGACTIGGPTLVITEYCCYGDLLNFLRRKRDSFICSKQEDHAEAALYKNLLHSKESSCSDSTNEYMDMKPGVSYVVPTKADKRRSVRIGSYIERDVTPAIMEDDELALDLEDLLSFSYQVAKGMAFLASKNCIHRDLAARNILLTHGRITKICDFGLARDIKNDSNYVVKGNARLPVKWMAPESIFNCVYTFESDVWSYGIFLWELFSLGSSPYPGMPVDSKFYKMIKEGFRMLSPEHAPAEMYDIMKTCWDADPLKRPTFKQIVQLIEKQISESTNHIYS

For the compound `CNC(=O)c1cc(Oc2ccc3nc(N[C@@H](C(=O)OC)c4ccccc4)oc3c2)ccn1` [Compound 53, (R)-[6-(2-Methylcarbamoyl-pyridin-4-yloxy)-benzooxazol-2-ylamino]-phenyl-acetic acid methyl ester], the inhibition (usually the relative decrease from the control value, in per cent) at 1 µM in experiment [1] was 95%; at kinase domain of cKIT, 21%; on kinase domain of PDGFRβ, 0%.
Turning to `CNC(=O)c1cc(Oc2ccc3nc(N[C@H](C(=O)OC)c4ccccc4)oc3c2)ccn1` [Compound 55, (S)-[6-(2-Methylcarbamoyl-pyridin-4-yloxy)-benzooxazol-2-ylamino]-phenyl-acetic acid methyl ester], the inhibition at 1 µM in experiment [1] amounted to 97%; on kinase domain of cKIT, 21%; at kinase domain of PDGFRβ, 11%.
In the same order, the values of `CNC(=O)c1cc(Oc2ccc3nc(N[C@H](CO)c4ccccc4)oc3c2)ccn1` [Compound 56, 4-[2-((S)-2-Hydroxy-1-phenyl-ethylamino)-benzooxazol-6-yloxy]-pyridine-2-carboxylic acid methylamide] are 66%, 55% and 0%.
In the same order, the values of `CNC(=O)c1cc(Oc2ccc3nc(NCc4cccnc4)oc3c2)ccn1` [Compound 59, 4-{2-[(Pyridin-3-ylmethyl)-amino]-benzooxazol-6-yloxy}-pyridine-2-carboxylic acid methylamide] are 97%, 21% and 0%.
The matching figures for `O=C(O)c1cc(Oc2ccc3nc(NCC4CCCCC4)oc3c2)ccn1` [Compound 60, 4-[2-(Cyclohexylmethyl-amino)-benzooxazol-6-yloxy]-pyridine-2-carboxylic acid]: 92%, 6% and 2%.
Take `CNC(=O)c1cc(Oc2ccc3nc(N[C@@H](C(=O)NC)C4CCCCC4)oc3c2)ccn1` [Compound 62, 4-{2-[((R)-Cyclohexyl-methylcarbamoyl-methyl)-amino]-benzooxazol-6-yloxy}-pyridine-2-carboxylic acid methylamide]: the inhibition at 1 µM is 19% in experiment [1], 7% on kinase domain of cKIT and 5% at kinase domain of PDGFRβ.
The matching figures for `CNC(=O)c1cc(Oc2ccc3nc(NCCN4CCCC4)oc3c2)ccn1` [Compound 63, 4-[2-(2-Pyrrolidin-1-yl-ethylamino)-benzooxazol-6-yloxy]-pyridin-2-carboxylic acid methylamide]: 45%, 6% and 3%.
On to `CNC(=O)c1cc(Oc2ccc3nc(NCCN4CCCCC4)oc3c2)ccn1` [Compound 64, 4-[2-(2-Piperidin-1-yl-ethyl-amino)-benzooxazol-6-yloxy]-pyridine-2-carboxylic acid methylamide], for which the values for the inhibition at 1 µM (in experiment [1]; at kinase domain of cKIT; at kinase domain of PDGFRβ) were 77%, 0% and 21%, respectively.
Regarding `CNC(=O)c1cc(Oc2ccc3nc(NCc4c(F)cccc4Cl)oc3c2)ccn1` [Compound 78, 4-[2-(2-Chloro-6-fluoro-benzylamino)-benzooxazol-6-yloxy]-pyridine-2-carboxylic acid methylamide], the inhibition at 1 µM in experiment [1] is 87%; at kinase domain of cKIT, 9%; on kinase domain of PDGFRβ, 0%.
In the same order, the values of `OCc1cc(Oc2ccc3nc(NCC4CCCCC4)oc3c2)ccn1` [Compound 80, {4-[2-(Cyclohexylmethyl-amino)-benzooxazol-6-yloxy]-pyridin-2-yl}-methanol] are 87%, 7% and 0%.
In the same order, the values of `c1cc(Oc2ccc3nc(NCC4CCCCC4)oc3c2)cc(-c2nnco2)n1` [Compound 81, Cyclohexylmethyl-[6-(2-[1,3,4]oxadiazol-2-yl-pyridin-4-yloxy)-benzooxazol-2-yl]-amine] are 54%, 16% and 0%.
